Measurements taken from US11000485B2, “Substituted hydroxystilbenes as AhR and Nrf2 modulators and their therapeutic applications” (Resolvex Pharmaceuticals Inc., priority 2017, dated 2021).

Tests used:
A549 cells = experiment: Cell viability (MTS); format: cell-based; conditions: Homo sapiens, A549, 48 hours
Procedure: (§1) Cells were cultured in RPMI-1640 containing 10% FBS (Jurkat and THP-1) or DMEM containing 10% FBS (A549 and MDA-MB-435). On Day 1, 1-5×10^4 cells per well in 100 μL of the cell culture medium containing 0.5% FBS were seeded into a 96-well flat bottom plate. On Day 2, the test compounds were added to the culture at different concentrations in triplicates. The controls include triplicates of no compound treatment and cell culture medium without cells. The cells were incubated at 5% CO2, 37° C. for 48 hours. On Day 4, MTS reagent was added to each well and incubated at 37° C. for 4 hours. The absorbance was read at 490 nm. The percentage of inhibition was calculated using the formula: [1-(experiment reading-background reading)/(negative control reading-background reading)]×100.

Jurkat cells [1] = experiment: Cell viability (MTS); format: cell-based; conditions: Homo sapiens, Jurkat, 48 hours
Procedure: as §1

MDA-MB-435 cells = experiment: Cell viability (MTS); format: cell-based; conditions: Homo sapiens, MDA-MB-435, 48 hours
Procedure: as §1

THP1 cells = experiment: Cell viability (MTS); format: cell-based; conditions: Homo sapiens, THP-1, 48 hours
Procedure: as §1

Jurkat cells [2] = experiment: Cell proliferation ([3H]-thymidine); format: cell-based; conditions: Homo sapiens, Jurkat, 48 hours, read-out: Anti-proliferation IC50, Jurkat
Procedure: Cells were cultured in RPMI-1640 containing 10% FBS (Jurkat) or DMEM containing 10% FBS (MDA-MB-435). On Day 1, 1×10^4 cells were seeded into one well of a 96-well white ISOPLATE™ with 0.5% FBS. The cells were cultured at 5% CO2, 37° C. overnight. On Day 2, the diluted test compounds were added into each well in a total volume of 100 μL of cell culture medium. For each cell line were set up three wells containing cells and only diluted DMSO as a negative (vehicle) control, and three wells without cells but containing the same volume and type of cell culture medium as background control. The cells were incubated at 5% CO2, 37° C. for 24 hours. On Day 3, 1 μL of [^3H]-thymidine was added into each well and incubation at 5% CO2, 37° C. was continued for another 24 hours. On Day 4, 30 μL of 50% TCA was added into each well and was incubated at 4° C. for 4 hours. Plates were washed with ddH2O four times and then air dried for 30 minutes followed by the addition of 100 μL of scintillation fluid into each well. The radioactivity was read using MICROBETA TRILUX™. The percentage of inhibition was calculated using the formula [1-(experiment reading-background reading)/(negative control reading-background reading)]×100.

AMPK (A1/B1/G1) = AMPK (A1/B1/G1) (Homo sapiens, UniProt Q13131); experiment: Kinase profiling, recombinant kinase; format: biochemical; conditions: 5 uM ATP
AKT1 = AKT1 (Homo sapiens, UniProt P31749); experiment: Kinase profiling, recombinant kinase; format: biochemical; conditions: 5 uM ATP
Sequence of AKT1 (P31749 whole entry, species assumed): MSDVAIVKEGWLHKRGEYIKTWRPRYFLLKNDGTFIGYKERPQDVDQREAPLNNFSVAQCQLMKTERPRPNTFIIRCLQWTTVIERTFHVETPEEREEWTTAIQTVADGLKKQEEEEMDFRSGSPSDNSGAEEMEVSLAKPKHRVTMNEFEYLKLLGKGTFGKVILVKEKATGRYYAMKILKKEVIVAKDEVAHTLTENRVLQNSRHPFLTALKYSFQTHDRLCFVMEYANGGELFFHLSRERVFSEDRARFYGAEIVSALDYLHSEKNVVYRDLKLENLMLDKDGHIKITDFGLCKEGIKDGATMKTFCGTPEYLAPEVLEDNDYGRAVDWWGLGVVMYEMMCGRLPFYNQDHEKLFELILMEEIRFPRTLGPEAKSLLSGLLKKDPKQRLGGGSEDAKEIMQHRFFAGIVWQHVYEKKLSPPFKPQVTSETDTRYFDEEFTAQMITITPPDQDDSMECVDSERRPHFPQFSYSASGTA
Procedure: (§2) Kinase profiling was conducted using different recombinant kinase targets against the compounds at 5 uM ATP. The kinases tested included AKT1 (RAC-alpha serine/threonine-protein kinas 1), JAK2, JAK3, p38α, p38β (p38 mitogen-activated protein kinase beta), GSK3β, SYK (Spleen tyrosine kinase), LCK, IKKα and IKKβ and CLK4. The test compounds were tested at 5 μM and 50 μM in triplicates.

CLK4 = CLK4 (Homo sapiens, UniProt Q9HAZ1); experiment: Kinase profiling, recombinant kinase; format: biochemical; conditions: 5 uM ATP
Sequence of CLK4 (Q9HAZ1 whole entry, species assumed): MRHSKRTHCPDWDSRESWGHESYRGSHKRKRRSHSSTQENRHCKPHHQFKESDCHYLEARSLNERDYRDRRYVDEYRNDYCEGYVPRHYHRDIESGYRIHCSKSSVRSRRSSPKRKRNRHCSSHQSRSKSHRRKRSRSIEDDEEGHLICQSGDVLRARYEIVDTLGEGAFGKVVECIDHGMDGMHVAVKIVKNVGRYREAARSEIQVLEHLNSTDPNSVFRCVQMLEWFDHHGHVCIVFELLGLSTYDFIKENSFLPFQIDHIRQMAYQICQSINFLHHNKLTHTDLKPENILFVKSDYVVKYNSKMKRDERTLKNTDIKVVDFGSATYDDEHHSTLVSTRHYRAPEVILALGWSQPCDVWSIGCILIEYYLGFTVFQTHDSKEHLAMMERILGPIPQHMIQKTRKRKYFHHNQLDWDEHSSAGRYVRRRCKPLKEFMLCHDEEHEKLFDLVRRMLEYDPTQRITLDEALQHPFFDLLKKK
Procedure: as §2

GSK3 β = GSK3 β (Homo sapiens, UniProt P49841); experiment: Kinase profiling, recombinant kinase; format: biochemical; conditions: 5 uM ATP
Procedure: as §2

IKK α = IKK α (Homo sapiens, UniProt O15111); experiment: Kinase profiling, recombinant kinase; format: biochemical; conditions: 5 uM ATP
Sequence of IKK α (O15111 whole entry, species assumed): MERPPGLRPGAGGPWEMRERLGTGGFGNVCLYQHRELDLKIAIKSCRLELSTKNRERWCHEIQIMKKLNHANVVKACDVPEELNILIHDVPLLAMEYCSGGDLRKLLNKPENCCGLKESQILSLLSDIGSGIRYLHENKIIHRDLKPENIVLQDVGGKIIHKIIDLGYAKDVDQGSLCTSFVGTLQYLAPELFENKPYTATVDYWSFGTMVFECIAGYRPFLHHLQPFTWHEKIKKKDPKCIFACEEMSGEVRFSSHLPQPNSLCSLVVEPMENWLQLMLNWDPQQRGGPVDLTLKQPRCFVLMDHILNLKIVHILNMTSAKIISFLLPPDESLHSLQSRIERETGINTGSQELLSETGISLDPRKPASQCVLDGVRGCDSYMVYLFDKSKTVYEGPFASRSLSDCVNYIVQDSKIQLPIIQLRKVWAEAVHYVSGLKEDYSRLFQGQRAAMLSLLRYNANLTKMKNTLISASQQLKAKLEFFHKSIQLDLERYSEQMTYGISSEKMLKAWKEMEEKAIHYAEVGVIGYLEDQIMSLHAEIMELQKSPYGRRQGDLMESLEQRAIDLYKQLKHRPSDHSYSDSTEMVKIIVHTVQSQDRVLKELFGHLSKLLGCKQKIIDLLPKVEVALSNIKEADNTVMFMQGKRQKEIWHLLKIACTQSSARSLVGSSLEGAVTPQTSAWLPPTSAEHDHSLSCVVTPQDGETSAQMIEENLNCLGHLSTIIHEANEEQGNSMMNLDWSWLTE
Procedure: as §2

IKK β = IKK β (Homo sapiens, UniProt O14920); experiment: Kinase profiling, recombinant kinase; format: biochemical; conditions: 5 uM ATP
Sequence of IKK β (O14920 whole entry, species assumed): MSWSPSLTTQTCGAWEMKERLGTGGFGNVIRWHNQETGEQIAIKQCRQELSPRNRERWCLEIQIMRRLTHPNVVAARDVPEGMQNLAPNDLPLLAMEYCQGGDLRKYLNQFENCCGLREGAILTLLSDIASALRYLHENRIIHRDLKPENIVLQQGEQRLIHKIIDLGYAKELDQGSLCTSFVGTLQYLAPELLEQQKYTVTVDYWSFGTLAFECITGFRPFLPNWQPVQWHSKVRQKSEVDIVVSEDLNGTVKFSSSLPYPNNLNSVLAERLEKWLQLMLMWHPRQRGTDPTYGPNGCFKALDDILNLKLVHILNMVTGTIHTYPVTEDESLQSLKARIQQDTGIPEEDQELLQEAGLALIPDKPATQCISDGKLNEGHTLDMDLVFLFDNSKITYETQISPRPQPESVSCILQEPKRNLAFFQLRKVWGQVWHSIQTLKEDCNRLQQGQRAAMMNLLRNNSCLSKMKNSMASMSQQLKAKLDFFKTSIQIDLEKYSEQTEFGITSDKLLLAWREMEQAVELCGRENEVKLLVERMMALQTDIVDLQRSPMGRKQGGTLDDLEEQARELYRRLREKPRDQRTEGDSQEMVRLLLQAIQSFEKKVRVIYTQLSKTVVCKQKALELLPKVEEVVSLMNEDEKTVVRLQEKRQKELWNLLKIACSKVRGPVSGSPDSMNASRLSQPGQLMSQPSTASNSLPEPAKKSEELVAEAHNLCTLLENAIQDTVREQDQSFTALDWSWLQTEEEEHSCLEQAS
Procedure: as §2

JAK2 = JAK2 (Homo sapiens, UniProt O60674); experiment: Kinase profiling, recombinant kinase; format: biochemical; conditions: 5 uM ATP
Procedure: as §2

JAK3 = JAK3 (Homo sapiens, UniProt P52333); experiment: Kinase profiling, recombinant kinase; format: biochemical; conditions: 5 uM ATP
Sequence of JAK3 (P52333 whole entry, species assumed): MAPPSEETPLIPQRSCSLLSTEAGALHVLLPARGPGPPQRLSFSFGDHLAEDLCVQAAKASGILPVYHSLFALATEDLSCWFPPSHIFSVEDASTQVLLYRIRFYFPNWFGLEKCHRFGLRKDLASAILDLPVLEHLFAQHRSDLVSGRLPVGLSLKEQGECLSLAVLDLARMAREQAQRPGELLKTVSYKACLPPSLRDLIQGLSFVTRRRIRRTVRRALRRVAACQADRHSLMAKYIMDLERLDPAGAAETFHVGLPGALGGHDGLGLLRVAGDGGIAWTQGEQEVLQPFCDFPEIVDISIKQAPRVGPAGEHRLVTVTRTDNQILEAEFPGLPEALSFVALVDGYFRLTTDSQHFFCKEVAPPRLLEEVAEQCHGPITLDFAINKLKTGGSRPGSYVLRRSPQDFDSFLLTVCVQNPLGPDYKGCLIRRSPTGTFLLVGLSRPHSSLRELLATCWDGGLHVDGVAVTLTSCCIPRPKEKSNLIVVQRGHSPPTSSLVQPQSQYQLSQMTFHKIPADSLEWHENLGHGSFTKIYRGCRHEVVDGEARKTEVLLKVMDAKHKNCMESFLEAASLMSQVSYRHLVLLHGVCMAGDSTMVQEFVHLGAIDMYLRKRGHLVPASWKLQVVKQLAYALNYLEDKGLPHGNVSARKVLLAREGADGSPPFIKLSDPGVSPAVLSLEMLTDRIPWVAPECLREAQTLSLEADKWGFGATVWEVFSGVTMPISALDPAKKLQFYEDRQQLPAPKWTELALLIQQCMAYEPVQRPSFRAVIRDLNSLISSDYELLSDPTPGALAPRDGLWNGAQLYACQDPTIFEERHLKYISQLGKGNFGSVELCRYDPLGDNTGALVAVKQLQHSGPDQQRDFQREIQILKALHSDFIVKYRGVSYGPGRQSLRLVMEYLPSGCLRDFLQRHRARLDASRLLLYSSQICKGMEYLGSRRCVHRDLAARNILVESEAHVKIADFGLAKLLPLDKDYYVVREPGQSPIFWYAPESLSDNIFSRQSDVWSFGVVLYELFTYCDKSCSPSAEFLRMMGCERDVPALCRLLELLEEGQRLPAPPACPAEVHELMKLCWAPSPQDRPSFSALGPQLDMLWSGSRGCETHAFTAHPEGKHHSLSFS
Procedure: as §2

LCK = LCK (Homo sapiens, UniProt P06239); experiment: Kinase profiling, recombinant kinase; format: biochemical; conditions: 5 uM ATP
Sequence of LCK (P06239 whole entry, species assumed): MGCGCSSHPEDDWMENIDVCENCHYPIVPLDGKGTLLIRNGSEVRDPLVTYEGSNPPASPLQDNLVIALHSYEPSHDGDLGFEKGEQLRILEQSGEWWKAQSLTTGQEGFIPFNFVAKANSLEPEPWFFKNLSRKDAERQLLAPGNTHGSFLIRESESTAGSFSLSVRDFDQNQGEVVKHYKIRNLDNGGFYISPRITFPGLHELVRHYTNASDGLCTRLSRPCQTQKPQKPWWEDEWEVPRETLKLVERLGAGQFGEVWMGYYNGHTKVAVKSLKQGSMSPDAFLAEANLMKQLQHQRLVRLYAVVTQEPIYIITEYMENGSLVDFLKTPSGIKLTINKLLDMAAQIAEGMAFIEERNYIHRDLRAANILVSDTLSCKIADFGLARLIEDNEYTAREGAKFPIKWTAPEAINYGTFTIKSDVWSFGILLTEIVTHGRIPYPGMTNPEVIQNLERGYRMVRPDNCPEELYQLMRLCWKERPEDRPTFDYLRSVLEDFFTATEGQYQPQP
Procedure: as §2

SYK = SYK (Homo sapiens, UniProt P43405); experiment: Kinase profiling, recombinant kinase; format: biochemical; conditions: 5 uM ATP
Procedure: as §2

p38 α = p38 α (Homo sapiens, UniProt Q16539); experiment: Kinase profiling, recombinant kinase; format: biochemical; conditions: 5 uM ATP
Sequence of p38 α (Q16539 whole entry): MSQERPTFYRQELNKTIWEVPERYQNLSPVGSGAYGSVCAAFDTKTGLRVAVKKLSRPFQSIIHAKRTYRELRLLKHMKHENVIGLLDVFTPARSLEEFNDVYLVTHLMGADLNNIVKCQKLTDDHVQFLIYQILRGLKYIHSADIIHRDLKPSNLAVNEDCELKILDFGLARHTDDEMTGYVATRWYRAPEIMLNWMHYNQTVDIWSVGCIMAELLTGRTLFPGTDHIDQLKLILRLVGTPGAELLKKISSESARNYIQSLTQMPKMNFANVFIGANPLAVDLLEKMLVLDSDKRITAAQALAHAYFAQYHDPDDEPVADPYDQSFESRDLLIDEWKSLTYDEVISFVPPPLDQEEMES
Procedure: as §2

p38 β = p38 β (Homo sapiens, UniProt Q15759); experiment: Kinase profiling, recombinant kinase; format: biochemical; conditions: 5 uM ATP
Sequence of p38 β (Q15759 whole entry): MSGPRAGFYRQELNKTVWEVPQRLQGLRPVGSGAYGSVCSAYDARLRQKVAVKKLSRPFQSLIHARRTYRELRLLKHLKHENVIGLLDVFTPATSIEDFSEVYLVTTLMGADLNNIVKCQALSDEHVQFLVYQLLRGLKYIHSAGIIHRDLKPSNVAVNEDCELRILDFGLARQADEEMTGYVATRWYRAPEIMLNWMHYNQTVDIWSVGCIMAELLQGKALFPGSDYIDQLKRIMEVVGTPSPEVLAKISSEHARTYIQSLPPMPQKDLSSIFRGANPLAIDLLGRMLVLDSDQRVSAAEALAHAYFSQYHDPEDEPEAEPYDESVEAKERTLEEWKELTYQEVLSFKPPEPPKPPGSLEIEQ
Procedure: as §2

[3] = tested on: dextran sodium sulphate (DSS) induced model of inflammatory bowel disease (IBD)/colitis; experiment: DSS induced model of IBD/colitis; format: in vivo, female Balb/c mice; conditions: Day 0 to Day 8, DSS control group 24.2+5.7, normal control 1.9+2.4
Procedure: The efficacy of Compound 2 was tested in a dextran sodium sulphate (DSS) induced model of inflammatory bowel disease (IBD)/colitis in female Balb/c mice. Rolipram was used as a positive control in this experiment. Colitis was induced in the mice by providing drinking water containing DSS (3.5%, M. Wt. 30,000-50,000) from Day 0 to Day 8. The test compounds were administered as per their respective groups at specific dose levels starting from Day 0 through to Day 8. […] For dosing, Compound 2 was dissolved in vehicle (1.5% Cremophor EL) at 3 mg/mL and 1 mg/mL for the 30 and 10 mg/kg doses, respectively. […] All doses were administered by oral gavage.
There was a considerable increase in disease activity index (DAI) (cumulative scores of body weight, stool consistency and rectal bleeding) in the DSS control group (24.2+5.7) when compared to normal control group (1.9+2.4) which indicated very good disease induction.

SMILES: CC(C)c1ccc(/C=C/c2ccc(F)cc2)cc1O [Compound 2, 3-hydroxy-4-isopropyl-4′-fluoro-(E)-stilbene]
- IC50 (A549 cells): 45 µM
- IC50 (Jurkat cells [1]): 7.6 µM
- IC50 (MDA-MB-435 cells): 24.9 µM
- IC50 (THP1 cells): 3.15 µM
- IC50 (Jurkat cells [2]): 1.67 µM
- inhibition at 5 µM (AMPK (A1/B1/G1); 5 μM compound): < 20%
- inhibition at 50 µM (AMPK (A1/B1/G1); 50 μM compound): > 50%
- inhibition at 5 µM (AKT1; 5 μM compound): < 20%
- inhibition at 50 µM (AKT1; 50 μM compound): < 20%
- inhibition at 5 µM (CLK4; 5 μM compound): > 50%
- inhibition at 50 µM (CLK4; 50 μM compound): > 50%
- inhibition at 5 µM (GSK3 β; 5 μM compound): < 20%
- inhibition at 50 µM (GSK3 β; 50 μM compound): > 50%
- inhibition at 5 µM (IKK α; 5 μM compound): < 20%
- inhibition at 50 µM (IKK α; 50 μM compound): < 20%
- inhibition at 5 µM (IKK β; 5 μM compound): < 20%
- inhibition at 50 µM (IKK β; 50 μM compound): 31 to 50%
- inhibition at 5 µM (JAK2; 5 μM compound): < 20%
- inhibition at 50 µM (JAK2; 50 μM compound): > 50%
- inhibition at 5 µM (JAK3; 5 μM compound): < 20%
- inhibition at 50 µM (JAK3; 50 μM compound): 20 to 30%
- inhibition at 5 µM (LCK; 5 μM compound): < 20%
- inhibition at 50 µM (LCK; 50 μM compound): 31 to 50%
- inhibition at 5 µM (SYK; 5 μM compound): < 20%
- inhibition at 50 µM (SYK; 50 μM compound): < 20%
- inhibition at 5 µM (p38 α; 5 μM compound): < 20%
- inhibition at 50 µM (p38 α; 50 μM compound): > 50%
- inhibition at 5 µM (p38 β; 5 μM compound): < 20%
- inhibition at 50 µM (p38 β; 50 μM compound): 20 to 30%
- disease activity index (DAI) (cumulative scores of body weight, stool consistency and rectal bleeding) ([3]; 10 mg/kg oral gavage): 17.4+12.0
- disease activity index (DAI) (cumulative scores of body weight, stool consistency and rectal bleeding) ([3]; 30 mg/kg oral gavage): 15.4+4.9
